In patent US4264600A (priority 1979, dated 1981):
Converted amounts (≈) assume the structure as drawn. Like-named read-outs stand apart in the source and are kept apart here.

Experiments:
[1] = system: Ann Arbor influenza virus; assay: in vitro plaque inhibition, Ann Arbor influenza virus; type: cell-based; details: for IC50: unidentified influenza virus, in Chlorocebus sabaeus, 72 h, read-out: I50, amount of drug which inhibits 50% of the plaques
[2] = system: Maryland B influenza virus; assay: in vitro plaque inhibition, Maryland B influenza virus; type: cell-based; details: for IC50: unidentified influenza virus, in Chlorocebus sabaeus, 72 h, read-out: I50, amount of drug which inhibits 50% of the plaques
[3] = system: Ann Arbor or Maryland B strains of influenza virus; assay: in vivo survival of mice infected with influenza virus; parameters: species or system White Swiss female mice, McAllister strain; details: for minimal effective dose: read-out: in vivo dose at which there was a statistically significant increase in survival
Experimental: In vivo activity was determined as follows: White Swiss female mice (11-13 g.) McAllister strain were infected with aqueous dilutions of Ann Arbor or Maryland B strains of influenza virus in an air borne injection apparatus. Graded dose levels of the drug were injected intraperitoneally (IP) or administered orally by gavage 24 and 4 hours preinfection and 24 and 48 hours postinfection. Date of death was determined. The drug was administered in water containing 2% of a surfactant. In Table 1, column 7, a dosage level for each drug is given at which there was a statistically significant increase in survival and column 6 gives the route of administration.

[4] = rats, 100 mg/kg
[5] = dogs, 30-60 mg/kg
[6] = system: Vaccinia; type: cell-based, Vaccinia virus; details: in vitro
[7] = system: Herpes simplex; assay: in vitro plaque suppression test, Herpes simplex; type: cell-based, Herpes simplex virus
[8] = system: Echo 10; assay: in vitro plaque suppression test, Echo 10; type: cell-based, Echo 10 virus; details: Echo 10, in vitro
[9] = system: Polio III; type: cell-based, Polio III virus; details: in vitro
[10] = compared with 6,7-dichloro congener
[11] = increased to 60 mg/day for 7 days
[12] = nasogastric gavage, 30 mg/day for 14 days
[13] = route IP, OR, 24 and 4 hours preinfection and 24 and 48 hours postinfection
[14] = route IP, 24 and 4 hours preinfection and 24 and 48 hours postinfection

O=C(O)c1nc2cc(Cl)c(Cl)cc2[nH]c1=O [E]
IC50 [1]: < 100 µg/mL | IC50 [2]: < 71 µg/mL | minimal effective dose ([3]; ip): 50 mg/kg

CCOC(=O)c1nc2cc(Cl)c(Cl)cc2[nH]c1=O [D]
blood urea nitrogen (30 then 60 mg/day): elevated | creatinine levels (30 then 60 mg/day): elevated | kidney damage (30 then 60 mg/day): evidence of kidney damage | AP [11]: remain elevated | SGPT [11]: returned to normal | AP [12]: moderate increases | SGPT [12]: moderate increases | liver damage (from AP and SGPT) [12]: suggestive of liver damage | degree of hepatotoxicity (both drugs) [4]: equal, though minor | degree of nephrotoxicity (both drugs) [4]: equal, though minor | degree of hepatotoxicity (both drugs) [5]: equal, though minor | degree of nephrotoxicity (both drugs) [5]: equal, though minor | IC50 [2]: 38 µg/mL (≈ 132 µM) | minimal effective dose [3, 13]: 40 mg/kg

O=C(O)CCc1nc2cc(Cl)c(Cl)cc2[nH]c1=O [B]
minimal effective dose ([3]; ip): 50 mg/kg

Ethyl 6-Nitro-8-chloro-3,4-dihydro-3-oxo-2-quinoxaline carboxylate and Ethyl 7-Nitro-5-chloro-3,4-dihydro-3-oxo-2-quinoxaline Carboxylate [S]
Activity level (dose level at which activity was found) [6]: 2000 µg/mg | Activity level (dose level at which activity was found) [7]: 2000 µg/mg | Activity level (dose level at which activity was found) [8]: 2000 µg/mg | in vivo dose at which there was a statistically significant increase in survival [3, 14]: 80 mg/kg

C=CCOC(=O)c1nc2cc(Cl)c(Cl)cc2[nH]c1=O [K]
IC50 [1]: 75 µg/mL (≈ 251 µM) | IC50 [2]: 33 µg/mL (≈ 110 µM)

COC(=O)c1nc2cc(Cl)c(Cl)cc2[nH]c1=O [C]
IC50 [2]: < 10 µg/mL | minimal effective dose ([3]; ip): 60 mg/kg

Ethyl 6-methoxy-5-nitro-3,4-dihydro-3-oxo-2-quinoxaline Carboxylate and Ethyl 7-Methoxy-8-nitro-3,4-dihydro-3-oxo-2-quinoxaline Carboxylate
Activity level (dose level at which activity was found) [7]: 2000 µg/mg | Activity level (dose level at which activity was found) [8]: 2000 µg/mg | in vivo dose at which there was a statistically significant increase in survival [3, 14]: 80 mg/kg

ethyl 6(7)-nitro-3,4-dihydro-3-oxo-2-quinoxaline carboxylate
Activity level (dose level at which activity was found) [6]: 2000 µg/mg | I50, amount of drug which inhibits 50% of the plaques ([2]; Maryland B influenza virus, in vitro, 72 hours at 37° C.): 40 µg/mL | in vivo dose at which there was a statistically significant increase in survival [3, 14]: 80 mg/kg

O=C(OCC1CCC1)c1nc2cc(Cl)c(Cl)cc2[nH]c1=O [L, Cyclobutylmethyl 6,7-Dichloro-3,4-dichloro-3-oxo-2-quinoxaline Carboxylate]
IC50 [1]: 20 µg/mL (≈ 61.1 µM) | IC50 [2]: 15 µg/mL (≈ 45.8 µM)

O=C(OCCCl)c1nc2cc(Cl)c(Cl)cc2[nH]c1=O [J]
IC50 [1]: 76 µg/mL (≈ 236 µM) | IC50 [2]: 58 µg/mL (≈ 180 µM)

CCOC(=O)c1nc2cc(I)c(I)cc2[nH]c1=O [F, Ethyl 6,7-Diiodo-3,4-dihydro-3-oxo-2-quinoxaline Carboxylate]
Ann Arbor influenza virus in vitro activity (in words) ([1]; Ann Arbor influenza virus, in vitro): Active | minimal effective dose [3]: 80 mg/kg

Ethyl 6(7)-Chloro-7(6)-bromo-3,4-dihydro-3-oxo-2-quinoxalineCarboxylate
Activity level (dose level at which activity was found) [9]: 2000 µg/mg | Activity level (dose level at which activity was found) [6]: 2000 µg/mg | in vivo dose at which there was a statistically significant increase in survival [3, 14]: 80 mg/kg

CCOC(=O)c1nc2cc(Br)c(Br)cc2[nH]c1=O [M]
degree of hepatotoxicity (both drugs) [4]: equal, though minor | degree of nephrotoxicity (both drugs) [4]: equal, though minor | degree of hepatotoxicity (both drugs) [5]: equal, though minor | degree of nephrotoxicity (both drugs) [5]: equal, though minor | minimal effective dose [3, 13]: 40 to 80 mg/kg | toxicity in monkeys relative to its 6,7-dichloro congener [10]: much less toxic

CCCCOC(=O)c1nc2cc(Cl)c(Cl)cc2[nH]c1=O [G]
IC50 [2]: 38 µg/mL (≈ 121 µM)
